One series has as its system Leptosphaeria nodorum. In words: Leptosphaeria nodorum test (wheat)/curative. The series is classed as in vivo. The conditions noted are these: curative, application rate 125 g/ha, evaluation 10 days after inoculation. As for the experimental part:
Leptosphaeria nodorum test (wheat)/curative Solvent: 10 parts by weight of N-methyl-pyrrolidone Emulsifier: 0.6 parts by weight of alkylaryl polyglycol ether To produce a suitable preparation of active compound, 1 part by weight of active compound is mixed with the stated amounts of solvent and emulsifier, and the concentrate is diluted with water to the desired concentration. To test for curative activity, young plants are sprayed with a conidia suspension of Leptosphaeria nodorum. […] The plants are placed in a greenhouse at a temperature of approximately 15° C. and a relative atmospheric humidity of approximately 80%.

Series [1] can be described thus: logP by HPLC (EEC directive 79/831 Annex V. A8, gradient method). The series is classed as physicochemical.
Experimental: The logP values were determined in accordance with EEC directive 79/831 Annex V. A8 by HPLC (gradient method, acetonitrile/0.1% aqueous phosphoric acid)
The next series deals with Pyrenophora teres. The series is described as follows: Pyrenophora teres test (barley)/curative. The class given is in vivo. The conditions noted are these: curative, application rate 250 g/ha, evaluation 7 days after inoculation. Here is the method: Pyrenophora teres test (barley)/curative Solvent: 10 parts by weight of N-methyl-pyrrolidone Emulsifier: 0.6 parts by weight of alkylaryl polyglycol ether To produce a suitable preparation of active compound, 1 part by weight of active compound is mixed with the stated amounts of solvent and emulsifier, and the concentrate is diluted with water to the desired concentration. To test for curative activity, young plants are sprayed with a conidia suspension of Pyrenophora teres. The plants remain in an incubation cabin at 20° C. and 100% relative atmospheric humidity for 48 hours. The plants are subsequently sprayed with the preparation of active compound at the stated application rate. The plants are placed in a greenhouse at a temperature of approximately 20° C. and a relative atmospheric humidity of approximately 80%.

As for `CNC(=O)C(=NOC)c1ccccc1Oc1nccc(OC(C)C)n1` [Example 1, 2-[2-(4-isopropoxypyrimidin-2-yloxy)-phenyl]-2-methoxyimino-N-methylacetamide], the efficacy entry in the series on Leptosphaeria nodorum was “more than 60%”; in the series with Pyrenophora teres, 70%. Besides, the chromatographic logP – broadly, a lipophilicity value derived from retention on a column – in series [1] is 2.2.
